From article PMC6737244, “Cathelicidin Peptides Restrict Bacterial Growth via Membrane Perturbation and Induction of Reactive Oxygen Species” (mBio, 2019)
Ends that are not written are not given here.

How the values were obtained:
V. cholerae = test: Survival (CFU) with B22 with or without ROS scavengers or SodA
Procedure: The membrane-permeable iron chelating agent 2,2′-dipyridyl (DP) efficiently chelates free Fe^2+ and the scavenger thiourea (TU) directly quenches hydroxyl radicals generated by the Fenton reaction.
To inhibit Fenton chemistry in the cytoplasm, cells were pretreated with 75 μM concentration of the membrane-permeable agent 2,2′-dipyridyl (DP), which efficiently chelates free Fe^2+, and 150 μM concentration of the scavenger thiourea (TU), which directly quenches Fenton-generated hydroxyl radicals ([50]). These concentrations of DP and TU were confirmed not to affect bacterial growth.

Escherichia coli IU342 = test: MIC, broth microdilution; assay type: cell-based; details: CAMHB, 16 to 18 h, at least three independent assays
Procedure: (§1) MICs were determined by using the broth microdilution method based on the general recommendations of the Clinical and Laboratory Standards Institute (CLSI). Bacteria were grown in CAMHB overnight. They were then diluted into fresh medium the following morning and grown to early log phase. The cultures were then diluted to approximately 5 × 10^5 CFU ml^−1, and 100 μl was added to sterile 96-well polypropylene microtiter plates (Corning, NY, USA) preloaded with twofold dilutions of antimicrobial peptides. […] All MIC assays were determined from at least three independent assays.

Vibrio cholerae AC53 = assay type: cell-based; details: CAMHB, 16 to 18 h, at least three independent assays
Procedure: as §1

[1] = system: Pseudomonas aeruginosa PAO1 oprD; assay type: cell-based; details: CAMHB, 16 to 18 h, at least three independent assays
Procedure: as §1

Vibrio cholerae C6075 = assay type: cell-based; details: CAMHB, 16 to 18 h, at least three independent assays
Procedure: as §1

[2] = system: Escherichia coli J53 AzideR; assay type: cell-based; details: CAMHB, 16 to 18 h, at least three independent assays
Procedure: as §1

FRKKLKKLFKKLSPVIPLLKLG [B22]
Killing of V. cholerae overproducing SodA (V. cholerae; 2.5 μM B22): completely suppressed
Decrease in survival of V. cholerae overexpressing SodA (V. cholerae; 5 μM B22): 10 fold
Decrease in survival (V. cholerae; V. cholerae, 2.5 μM B22): 3 log10 units
Increase in survival by preincubation with 75 μM DP and 150 mM TU in combination (V. cholerae; V. cholerae, prior to addition of B22): 13 fold

FRKKLKKLFKKLSPVIPLLKLG-NH2 [B22a]
MIC (Escherichia coli IU342): 2 µM
MIC (Vibrio cholerae AC53): 4 µM
MIC [1]: 2 µM
MIC (Vibrio cholerae C6075): 4 µM
MIC [2]: 2 µM
